In US5332726A, “Antithrombotic peptides and pseudopeptides” (Rhone-Poulenc Rorer Pharmaceuticals Inc., priority 1992, dated 1994):
Non-standard residues stand in square brackets, D forms with d. Residues, ends and D or L forms follow the SMILES beside them. NMeD = CN[C@@H](CC(=O)O)C(=O)O; Orn = NCCC[C@H](N)C(=O)O; Aoc = NCCCCCCCC(=O)O; Sar = CNCC(=O)O

Columns and labels:
[1] = target: thrombin-stimulated platelets (Homo sapiens, UniProt P05106+P08514); assay: Fibrinogen-Binding Assay (125I-fibrinogen binding to platelets); conditions: 125I-fibrinogen 0.176 μmol/liter, thrombin-stimulated platelets; read-out: Inhibition of 125I-Fibrinogen Binding to Platelets IC50
Experimental: Platelets are washed free of plasma constituents by the albumin density-gradient technique of Walsh, P. N., et al., Br. J. Haematol. […] After these additions, the final platelet count in the mixture is 1×10^11 /liter. After incubation for an additional 30 minutes at 22°-25° C., bound and free ligand are separated by centrifuging 50 μl of the mixture through 300 μl of 20% sucrose at 12,000×g for 4 minutes. The platelet pellet is then separated from the rest of the mixture to determine platelet-bound radioactivity. Nonspecific binding is measured in mixtures containing an excess of unlabeled ligand. […] The IC50 is derived by plotting residual fibrinogen binding against the logarithm of the sample compound's concentration.

[2] = target: fixed activated platelets (Homo sapiens, UniProt P05106+P08514); assay: Platelet Aggregation Assay (fibrinogen-mediated aggregation of fixed-activated platelets); type: cell-based; conditions: for IC50: fixed activated platelets, human fibrinogen 250 μg/ml, read-out: Inhibition of Fibrinogen Mediated Platelet Aggregation IC50; for inhibition at 25 µM: read-out: Inhibition of Fibrinogen Mediated Platelet Aggregation % inhibition at 25 μM; for inhibition at 100 µM: read-out: Inhibition of Fibrinogen Mediated Platelet Aggregation % inhibition at 100 μM
Experimental: PLATELET AGGREGATION ASSAY
Preparation of Fixed-Activated Platelets
To the activated platelets is added paraformaldehyde to a final concentration of 0.50% and this incubated at room temperature for 30 minutes. The fixed activated platelets are then collected by centrifugation at 650×g for 15 minutes.
Platelet Aggregation Assay
The fixed activated platelets are incubated with a selected dose of the compound to be tested for platelet aggregation inhibition for one minute and aggregation initiated by addition of human fibrinogen to a final concentration of 250 μg/ml. A platelet aggregation profiler Model PAP-4 is used to record the platelet aggregation.

Chain of fixed activated platelets (P08514 32-1039): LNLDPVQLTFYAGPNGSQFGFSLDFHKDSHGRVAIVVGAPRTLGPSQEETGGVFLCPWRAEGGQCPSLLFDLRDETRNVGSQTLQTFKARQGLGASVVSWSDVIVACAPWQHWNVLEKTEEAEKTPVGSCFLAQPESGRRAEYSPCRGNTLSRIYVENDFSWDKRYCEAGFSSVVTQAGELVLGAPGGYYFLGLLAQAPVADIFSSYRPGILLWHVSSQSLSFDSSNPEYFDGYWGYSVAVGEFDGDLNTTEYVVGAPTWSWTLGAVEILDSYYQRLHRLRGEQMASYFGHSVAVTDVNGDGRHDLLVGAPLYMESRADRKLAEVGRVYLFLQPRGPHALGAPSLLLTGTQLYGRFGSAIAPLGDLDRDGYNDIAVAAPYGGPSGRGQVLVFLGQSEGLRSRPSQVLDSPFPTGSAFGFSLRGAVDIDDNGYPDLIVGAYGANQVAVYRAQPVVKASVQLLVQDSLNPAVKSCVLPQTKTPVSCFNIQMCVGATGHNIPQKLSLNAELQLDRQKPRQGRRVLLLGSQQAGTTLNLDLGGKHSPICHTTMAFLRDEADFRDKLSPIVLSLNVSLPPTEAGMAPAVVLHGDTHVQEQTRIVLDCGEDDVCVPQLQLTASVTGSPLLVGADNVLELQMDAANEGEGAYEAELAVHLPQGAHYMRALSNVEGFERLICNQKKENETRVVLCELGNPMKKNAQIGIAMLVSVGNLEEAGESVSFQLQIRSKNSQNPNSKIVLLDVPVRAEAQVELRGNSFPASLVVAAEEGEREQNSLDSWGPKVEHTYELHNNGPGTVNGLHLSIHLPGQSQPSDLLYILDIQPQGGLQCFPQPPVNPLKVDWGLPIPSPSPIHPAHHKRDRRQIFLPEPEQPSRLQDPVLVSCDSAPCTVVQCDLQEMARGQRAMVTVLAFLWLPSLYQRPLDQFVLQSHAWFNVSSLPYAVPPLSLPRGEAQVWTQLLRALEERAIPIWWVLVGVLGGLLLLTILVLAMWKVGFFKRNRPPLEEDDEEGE
Chain of fixed activated platelets (P05106 27-788): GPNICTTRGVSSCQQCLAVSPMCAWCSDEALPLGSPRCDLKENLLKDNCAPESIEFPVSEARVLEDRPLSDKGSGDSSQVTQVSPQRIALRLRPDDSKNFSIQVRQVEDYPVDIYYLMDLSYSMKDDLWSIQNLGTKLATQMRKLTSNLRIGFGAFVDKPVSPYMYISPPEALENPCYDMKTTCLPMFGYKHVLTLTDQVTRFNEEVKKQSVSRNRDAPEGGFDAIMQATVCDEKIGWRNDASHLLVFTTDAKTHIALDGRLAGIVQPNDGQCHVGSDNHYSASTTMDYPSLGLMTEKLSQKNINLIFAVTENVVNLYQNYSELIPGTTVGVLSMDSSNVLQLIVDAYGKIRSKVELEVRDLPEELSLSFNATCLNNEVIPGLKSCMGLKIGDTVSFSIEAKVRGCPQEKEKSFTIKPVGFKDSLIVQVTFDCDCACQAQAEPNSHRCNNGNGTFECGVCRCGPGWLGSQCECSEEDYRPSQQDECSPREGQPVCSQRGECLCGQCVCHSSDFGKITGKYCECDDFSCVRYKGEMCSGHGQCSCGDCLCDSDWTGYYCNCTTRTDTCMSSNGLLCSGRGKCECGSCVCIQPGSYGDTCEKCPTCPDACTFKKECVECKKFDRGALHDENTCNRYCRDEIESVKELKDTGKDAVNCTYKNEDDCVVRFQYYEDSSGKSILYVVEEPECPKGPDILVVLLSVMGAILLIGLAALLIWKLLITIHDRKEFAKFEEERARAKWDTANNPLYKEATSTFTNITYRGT
Chain of thrombin-stimulated platelets (P08514 32-1039): as the sequence (P08514 32-1039) above
Chain of thrombin-stimulated platelets (P05106 27-788): as the sequence (P05106 27-788) above

SMILES | IC50 [1] [µM] | IC50 [2] [µM] | inhibition at 25 µM [2] [%] | inhibition at 100 µM [2] [%]
CC(C)[C@H](NC(=O)[C@H](CC(=O)O)NC(=O)CN(C)C(=O)CCCCCNC(=N)N)C(=O)O [6-Guanidinohexanoyl-L-sarcosyl-L-aspartyl-L-valine] | 0.32 | 0.63 | 97 | –
CCN(CC(=O)N[C@@H](CC(=O)O)C(=O)N[C@@H](Cc1ccccc1)C(=O)O)C(=O)CCCCCNC(=N)N [6-Guanidinohexanoyl-N-ethylglycyl-L-aspartyl-L-phenylalanine] | 0.2 | 1.3 | 97 | –
CC(C)[C@H](NC(=O)[C@H](CC(=O)O)NC(=O)CN(C(=O)CCCCCNC(=N)N)C1CCCC1)C(=O)O [6-Guanidinohexanoyl-N-cyclopentylglycine-L-aspartyl-L-valine] | 0.88 | 5.7 | 76 | –
CC(C)[C@H](NC(=O)[C@H](CC(=O)O)NC(=O)CN(C)C(=O)CCCCCCCN)C(=O)O [8-Aminooctanoyl-sarcosyl-L-aspartyl-L-valine] (H-[Aoc][Sar]DV-OH) | 0.23 | 2.6 | 96 | –
N=C(N)NCCCCCCCC(=O)N[C@@H](CC(=O)O)C(=O)N[C@@H](CCCNC(=N)N)C(=O)O [8-Guanidinooctanoyl-L-aspartyl-arginine] | 0.33 | 2.2 | 94 | –
CN(CC(=O)N[C@@H](CC(=O)O)C(=O)N[C@@H](Cc1c[nH]c2ccccc12)C(=O)O)C(=O)CCCCCNC(=N)N [6-Guanidinohexanoyl-sarcosyl-L-aspartyl-L-tryptophan] | 0.19 | 6.6 | 89 | –
CCC(C)[C@H](CCCNC(=N)N)NC(=O)[C@H](CC(=O)O)NC(=O)CCCCCCCCNC(=N)N (stereo partly drawn) [9-Guanidinononanoyl-L-aspartyl-((S)-4-amino-4-sec-butylbutyl)guanidine] | – | – | 76 | –
CC(C)[C@H](NC(=O)[C@H](CC(=O)O)NC(=O)CN(C)C(=O)CCCCCn1ccnc1)C(=O)O [6-(Imidazol-1-yl)-hexanoylsarcosyl-L-aspartyl] | – | – | 94 | –
CC(C)[C@H](NC(=O)[C@H](CC(=O)O)NC(=O)CCCCNC(=N)N)C(=O)O [5-guanidinovaleroyl-L-aspartyl-L-valine] | – | – | 28 | –
CC(C)CC(CCCN)(NC(=O)[C@H](CC(=O)O)NC(=O)CCCCCCCCNC(=N)N)C(=O)O (stereo partly drawn) [9-Guanidinononanoyl-L-aspartyl-(R,S)-α-isobutylornithine] | – | > 25 | 4 | –
N=C(N)NCCCCCCCC(=O)NCC(=O)NCC(=O)O [8-Guanidinooctanoyl-glycyl-glycine] | – | – | 12 | –
CCCCOC(=O)[C@@H](NC(=O)[C@H](CC(=O)O)NC(=O)CN(C)C(=O)CCCCCNC(=N)N)C(C)C [6-Guanidinohexanoyl-sarcosyl-L-aspartyl-L-valine-butylester] | – | 4.5 | 90 | –
Cc1nccn1CCCCCCCCC(=O)N[C@@H](CC(=O)O)C(=O)N[C@H](C(=O)O)C(C)C | – | – | 74 | –
CC[C@@H](C)[C@H](CC(=O)NCCCCNC(=N)N)NC(=O)[C@H](CC(=O)O)NC(=O)CCCCCCCCNC(=N)N [9-Guanidinononanoyl-L-aspartyl-D-β-homoiso-leucyl-(des-carboxy)-L-arginine] | – | 3.3 | 94 | –
CC(C)[C@H](NC(=O)[C@H](CC(=O)O)NC(=O)CCCCCCCCNC(=N)N)C(=O)N[C@@H](CCCNC(=N)N)C(=O)O [9-Guanidinononanoyl-L-aspartyl-L-valine-L-arginine] | – | 0.22 | 98 | –
CCCCOC(=O)C[C@H](NC(=O)CN(C)C(=O)CCCCCNC(=N)N)C(=O)N[C@H](C(=O)O)C(C)C [6-Guanidinohexanoyl-sarcosyl-L-aspartyl-β-butylester-L-valine] | – | > 25 | 18 | –
CC(C)[C@H](NC(=O)[C@H](CC(=O)O)NC(=O)CCCCCCCNC(=N)N)c1nnn[nH]1 [8-Guanidinooctanoyl-L-aspartyl-L-valine-5-tetrazole] | – | > 25 | 32 | –

Continued, values first:

IC50 [1] [µM] | IC50 [2] [µM] | inhibition at 25 µM [2] [%] | inhibition at 100 µM [2] [%] | SMILES
54 | 999 | 9 | – | CC[C@H](C)[C@H](NC(=O)CCNC(=O)[C@H](CC(=O)O)NC(=O)CCCCCCCCNC(=N)N)C(=O)O [9-Guanidinononanoyl-L-aspartyl-β-alanyl-L-isoleucine]
3 | 2.2 | 89 | – | CC(C)CNC(=O)[C@H](CCCNC(=N)N)NC(=O)[C@H](CC(=O)O)NC(=O)CCCCCCCCNC(=N)N [9-Guanidinononanoyl-L-aspartyl-L-arginine isobutyl amide]
20 | 13.3 | 69 | – | COC(=O)[C@](CCCNC(=N)N)(Cc1ccccc1)NC(=O)[C@H](CC(=O)O)NC(=O)CCCCCCCCNC(=N)N [9-Guanidinononanoyl-L-aspartyl-(S)-α-benzyl arginine methyl ester]
1.2 | 2.4 | 93 | – | CC[C@H](C)[C@H](NC(=O)[C@H](CCCNC(=N)N)NC(=O)[C@H](CC(=O)O)NC(=O)CCCCCCCCNC(=N)N)C(=O)O [9-Guanidinononanoyl-L-aspartyl-arginyl-isoleucine]
– | 1.7 | 91 | – | COC(=O)[C@H](CCCNC(=N)N)NC(=O)[C@H](CC(=O)O)NC(=O)CCCCCCCCNC(=N)N [9-Guanidinononanoyl-L-aspartyl-L-arginine methylester]
– | > 25 | 45 | – | CC[C@H](C)[C@H](NC(=O)[C@@H](NC(=O)[C@H](CC(=O)O)NC(=O)CCCCCCCCNC(=N)N)[C@@H](C)CC)C(=O)O [9-Guanidinononanoyl-L-aspartyl-L-isoleucyl-L-isoleucine]
– | – | 89 | – | CCC(C)C(CNC(=O)[C@H](CC(=O)O)NC(=O)CCCCCCCCNC(=N)N)C(=O)N[C@@H](CCCNC(=N)N)C(=O)O (stereo partly drawn) [N-(9-Guanidinononanoyl-L-aspartyl)-3-amino-2-sec-butyl propionic acid L-arginine amide]
– | – | 94 | – | CCC(C)C[C@H](NC(=O)[C@H](CC(=O)O)NC(=O)CCCCCCCCNC(=N)N)C(=O)N[C@@H](CCCNC(=N)N)C(=O)O (stereo partly drawn) [9-Guanidinononanoyl-L-aspartyl-homo-L-isoleucyl-L-arginine]
– | > 64 | – | – | CC(C)[C@H](NC(=O)[C@H](CC(=O)O)N(C)C(=O)CNC(=O)[C@@H](N)CCCNC(=N)N)C(=O)O [L-arginyl-glycyl-L-N-methylaspartyl-L-valine] (H-RG[NMeD]V-OH)
– | 0.52 | 96 | – | CC(C)C[C@H](NC(=O)[C@H](CC(=O)O)NC(=O)CCCCCCCCNC(=N)N)C(=O)N[C@@H](CCCNC(=N)N)C(=O)O [9-Guanidinononanoyl-L-aspartyl-L-leucyl-L-arginine]
– | – | 98 | – | CCC(C)C[C@@H](NC(=O)[C@H](CC(=O)O)NC(=O)CCCCCCCCNC(=N)N)C(=O)N[C@@H](CCCNC(=N)N)C(=O)O (stereo partly drawn) [9-Guanidinononanoyl-L-aspartyl-D-homoisoleucyl-L-arginine]
– | 1.5 | 96 | – | CC(C)(C)[C@H](NC(=O)[C@H](CC(=O)O)NC(=O)CCCCCCCCNC(=N)N)C(=O)N[C@@H](CCCNC(=N)N)C(=O)O [9-Guanidinononanoyl-L-aspartyl-L-t-butylglycyl-L-arginine]
– | > 25 | 0 | – | COC(=O)[C@](CCCNC(=N)N)(CC(C)C)NC(=O)[C@H](CC(=O)O)NC(=O)CCCCCCCCNC(=N)N [9-Guanidinononanoyl-L-aspartyl-(S)-α-isobutyl-arginine methylester]
– | – | 94 | – | CC(C)C[C@@H](CCCNC(=N)N)NC(=O)[C@H](CC(=O)O)NC(=O)CCCCCCCCNC(=N)N [(R)-4-[N-(9-Guanidinononanoyl-L-aspartyl)-amino]-4-isobutylbutylguanidine]
– | 14.3 | – | 91 | N=C(N)NCCC[C@H](N)C(=O)NCC(=O)N[C@@H](CC(=O)O)C(=O)NCC(=O)O [L-arginylglycyl-L-aspartyl glycine] (H-RGDG-OH)
– | – | – | 20 | CC(C)[C@H](NC(=O)[C@@H](N)CCCNC(=O)[C@@H](N)CCCNC(=N)N)C(=O)O [N-δ-(L-arginyl)-L-ornithyl-L-valine] (H-[Orn](Arg)-Val-OH)
2.1 | – | – | – | CC(C)C[C@@H](CCC(=O)N[C@@H](CCCNC(=N)N)C(=O)O)NC(=O)[C@H](CC(=O)O)NC(=O)CCCCCCCCNC(=N)N [N-[N-(9-Guanidinononanoyl-L-aspartyl)-(R)-4-amino-4-isobutylbutyryl]-L-arginine]
– | – | 38 | – | CC[C@H](C)[C@@H](CN[C@@H](CCCNC(=N)N)C(=O)O)NC(=O)[C@H](CC(=O)O)NC(=O)CCCCCCCCNC(=N)N [9-Guanidinononanoyl-L-aspartyl-β-homo-L-isoleucyl psi(CH2 NH)-L-arginine]
– | 0.54 | 89 | – | C[C@H](NC(=O)[C@H](CC(=O)O)NC(=O)CCCCCCCCNC(=N)N)C(=O)N[C@@H](CCCNC(=N)N)C(=O)O [9-Guanidinononanoyl-L-aspartyl-L-alanyl-L-arginine]
